Measured values from publication doi:10.1101/2021.09.30.462449v1 (biorxiv, 2021).

Experiments:
Assay in all cases: biochemical
Conditions in all cases: read-out: % inhibition mean (Z'Lyte)
[1] = target: ABL1 E255K (Homo sapiens, UniProt P00519, E255K)
[2] = target: ABL2 (Arg) (Homo sapiens, UniProt P42684)
[3] = target: AMPK (A1/B2/G3) (Homo sapiens, UniProt Q13131)
[4] = target: AMPK (A2/B1/G3) (Homo sapiens, UniProt P54646)
[5] = target: AMPK A2/B1/G1 (Homo sapiens, UniProt P54646)
[6] = target: BRSK1 (SAD1) (Homo sapiens, UniProt Q8TDC3)
[7] = target: CLK2 (Homo sapiens, UniProt P49760)
[8] = target: DCAMKL2 (DCK2) (Homo sapiens, UniProt Q8N568)
[9] = target: DYRK3 (Homo sapiens, UniProt O43781)
[10] = target: DYRK4 (Homo sapiens, UniProt Q9NR20)
[11] = target: FLT1 (VEGFR1) (Homo sapiens, UniProt P17948)
[12] = target: FLT4 (VEGFR3) (Homo sapiens, UniProt P35916)
[13] = target: IKBKE (IKK epsilon) (Homo sapiens, UniProt Q14164)
[14] = target: IRAK4 (Homo sapiens, UniProt Q9NWZ3)
[15] = target: KIT (Homo sapiens, UniProt P10721)
[16] = target: LCK (Homo sapiens, UniProt P06239)
[17] = target: MAP2K1 (MEK1) (Homo sapiens, UniProt Q02750)
[18] = target: MAP2K6 (MKK6) (Homo sapiens, UniProt P52564)
[19] = target: MAPK9 (JNK2) (Homo sapiens, UniProt P45984)
[20] = target: MAPKAPK5 (PRAK) (Homo sapiens, UniProt Q8IW41)
[21] = target: MUSK (Homo sapiens, UniProt O15146)
[22] = target: NTRK1 (TRKA) (Homo sapiens, UniProt P04629)
[23] = target: NTRK3 (TRKC) (Homo sapiens, UniProt Q16288)
[24] = target: PAK1 (Homo sapiens, UniProt Q13153)
[25] = target: PDGFRA T674I (Homo sapiens, UniProt P16234, T674I)
[26] = target: PRKCQ (PKC theta) (Homo sapiens, UniProt Q04759)
[27] = target: PRKX (Homo sapiens, UniProt P51817)
[28] = target: RPS6KB2 (p70S6Kb) (Homo sapiens, UniProt Q9UBS0)
[29] = target: SGKL (SGK3) (Homo sapiens, UniProt Q96BR1)

Sequence of FLT1 (VEGFR1) (P17948 whole entry): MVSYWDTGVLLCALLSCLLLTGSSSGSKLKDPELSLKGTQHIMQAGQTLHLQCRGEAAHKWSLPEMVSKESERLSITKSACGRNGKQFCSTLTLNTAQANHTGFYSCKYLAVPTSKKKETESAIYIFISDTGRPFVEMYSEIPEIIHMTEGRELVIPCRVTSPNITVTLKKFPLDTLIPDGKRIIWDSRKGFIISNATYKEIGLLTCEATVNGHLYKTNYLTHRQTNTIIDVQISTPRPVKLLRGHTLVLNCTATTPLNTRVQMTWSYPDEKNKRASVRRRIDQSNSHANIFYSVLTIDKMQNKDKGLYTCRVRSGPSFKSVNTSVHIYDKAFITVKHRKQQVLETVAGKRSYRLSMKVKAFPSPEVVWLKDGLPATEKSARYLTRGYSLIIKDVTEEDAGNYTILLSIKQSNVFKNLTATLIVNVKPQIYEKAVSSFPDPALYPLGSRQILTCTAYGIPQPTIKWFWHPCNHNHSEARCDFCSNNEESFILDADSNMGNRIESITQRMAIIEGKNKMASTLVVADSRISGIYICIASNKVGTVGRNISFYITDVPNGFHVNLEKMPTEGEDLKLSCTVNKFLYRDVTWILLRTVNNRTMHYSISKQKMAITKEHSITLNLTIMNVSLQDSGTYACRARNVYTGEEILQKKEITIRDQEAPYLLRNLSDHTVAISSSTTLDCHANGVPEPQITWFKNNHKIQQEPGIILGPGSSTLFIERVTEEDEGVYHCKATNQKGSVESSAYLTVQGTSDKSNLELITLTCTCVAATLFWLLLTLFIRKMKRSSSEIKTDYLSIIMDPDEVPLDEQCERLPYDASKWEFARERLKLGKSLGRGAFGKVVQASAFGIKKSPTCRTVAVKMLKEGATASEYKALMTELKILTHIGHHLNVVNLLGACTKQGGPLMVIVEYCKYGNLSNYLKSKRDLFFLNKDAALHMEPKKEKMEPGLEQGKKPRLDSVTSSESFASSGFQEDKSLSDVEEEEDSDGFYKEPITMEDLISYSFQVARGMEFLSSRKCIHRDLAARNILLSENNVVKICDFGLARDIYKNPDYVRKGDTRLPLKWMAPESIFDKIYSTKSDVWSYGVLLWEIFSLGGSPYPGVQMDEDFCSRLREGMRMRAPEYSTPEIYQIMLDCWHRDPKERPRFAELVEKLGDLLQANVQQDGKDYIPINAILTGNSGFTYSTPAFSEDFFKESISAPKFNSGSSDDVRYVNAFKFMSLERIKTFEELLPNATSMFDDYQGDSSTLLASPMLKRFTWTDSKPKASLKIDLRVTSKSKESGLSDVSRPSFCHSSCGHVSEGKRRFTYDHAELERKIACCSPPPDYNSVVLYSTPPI
Sequence of RPS6KB2 (p70S6Kb) (Q9UBS0 whole entry): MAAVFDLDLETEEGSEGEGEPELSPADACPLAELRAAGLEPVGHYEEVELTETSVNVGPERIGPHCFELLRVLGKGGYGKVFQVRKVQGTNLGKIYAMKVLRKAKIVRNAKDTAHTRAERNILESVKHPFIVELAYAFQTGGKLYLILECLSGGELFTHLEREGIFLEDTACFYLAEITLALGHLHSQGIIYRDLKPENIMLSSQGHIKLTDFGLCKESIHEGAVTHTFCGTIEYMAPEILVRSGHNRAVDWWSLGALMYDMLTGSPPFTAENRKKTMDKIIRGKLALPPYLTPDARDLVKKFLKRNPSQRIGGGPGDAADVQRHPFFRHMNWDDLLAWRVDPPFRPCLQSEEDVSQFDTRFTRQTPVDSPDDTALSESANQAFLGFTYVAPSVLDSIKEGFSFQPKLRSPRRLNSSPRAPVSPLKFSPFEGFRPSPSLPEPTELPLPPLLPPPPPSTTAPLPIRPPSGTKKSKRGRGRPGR
Sequence of FLT4 (VEGFR3) (P35916 whole entry): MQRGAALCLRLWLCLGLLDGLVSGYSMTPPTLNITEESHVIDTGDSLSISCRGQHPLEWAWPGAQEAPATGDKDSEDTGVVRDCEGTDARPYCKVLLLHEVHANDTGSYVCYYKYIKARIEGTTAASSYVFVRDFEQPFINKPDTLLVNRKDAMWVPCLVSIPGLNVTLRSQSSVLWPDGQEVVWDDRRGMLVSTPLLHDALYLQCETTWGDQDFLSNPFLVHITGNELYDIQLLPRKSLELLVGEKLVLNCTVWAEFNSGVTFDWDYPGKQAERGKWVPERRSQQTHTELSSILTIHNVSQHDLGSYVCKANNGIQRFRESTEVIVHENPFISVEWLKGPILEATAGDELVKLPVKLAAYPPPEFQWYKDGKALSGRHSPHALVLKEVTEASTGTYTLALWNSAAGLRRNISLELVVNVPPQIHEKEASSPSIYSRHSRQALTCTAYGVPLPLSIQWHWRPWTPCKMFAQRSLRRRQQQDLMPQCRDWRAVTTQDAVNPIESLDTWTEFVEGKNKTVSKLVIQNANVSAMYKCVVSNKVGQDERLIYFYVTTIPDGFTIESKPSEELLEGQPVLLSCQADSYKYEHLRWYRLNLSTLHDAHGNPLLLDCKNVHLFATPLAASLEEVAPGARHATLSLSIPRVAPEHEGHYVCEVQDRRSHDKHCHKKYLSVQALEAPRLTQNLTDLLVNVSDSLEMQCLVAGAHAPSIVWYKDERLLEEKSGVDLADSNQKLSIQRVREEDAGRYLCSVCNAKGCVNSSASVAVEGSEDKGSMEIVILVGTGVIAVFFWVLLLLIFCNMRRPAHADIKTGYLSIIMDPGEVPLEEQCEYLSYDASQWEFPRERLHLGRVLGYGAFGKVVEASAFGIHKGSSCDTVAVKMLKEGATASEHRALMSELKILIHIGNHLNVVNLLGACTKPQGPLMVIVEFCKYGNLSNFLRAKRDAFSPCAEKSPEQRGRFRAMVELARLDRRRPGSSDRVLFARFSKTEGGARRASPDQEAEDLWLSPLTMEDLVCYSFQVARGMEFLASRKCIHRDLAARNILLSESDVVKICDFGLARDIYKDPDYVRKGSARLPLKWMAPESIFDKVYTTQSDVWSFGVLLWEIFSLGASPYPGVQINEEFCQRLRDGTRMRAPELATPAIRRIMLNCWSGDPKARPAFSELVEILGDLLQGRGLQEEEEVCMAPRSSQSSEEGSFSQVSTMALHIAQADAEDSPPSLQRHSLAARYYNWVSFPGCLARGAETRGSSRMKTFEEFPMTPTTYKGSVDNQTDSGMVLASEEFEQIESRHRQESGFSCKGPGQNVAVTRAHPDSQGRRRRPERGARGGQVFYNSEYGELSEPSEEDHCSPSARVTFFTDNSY
Sequence of MAP2K6 (MKK6) (P52564 whole entry): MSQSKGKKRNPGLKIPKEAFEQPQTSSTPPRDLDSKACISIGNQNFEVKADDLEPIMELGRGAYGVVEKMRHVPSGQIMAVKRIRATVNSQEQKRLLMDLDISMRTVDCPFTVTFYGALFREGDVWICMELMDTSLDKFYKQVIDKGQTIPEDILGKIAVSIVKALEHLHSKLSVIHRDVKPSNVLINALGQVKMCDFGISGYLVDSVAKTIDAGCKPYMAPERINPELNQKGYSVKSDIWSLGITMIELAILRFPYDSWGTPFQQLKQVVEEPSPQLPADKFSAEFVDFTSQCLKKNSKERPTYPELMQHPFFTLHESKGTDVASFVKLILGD
Sequence of PRKCQ (PKC theta) (Q04759 whole entry): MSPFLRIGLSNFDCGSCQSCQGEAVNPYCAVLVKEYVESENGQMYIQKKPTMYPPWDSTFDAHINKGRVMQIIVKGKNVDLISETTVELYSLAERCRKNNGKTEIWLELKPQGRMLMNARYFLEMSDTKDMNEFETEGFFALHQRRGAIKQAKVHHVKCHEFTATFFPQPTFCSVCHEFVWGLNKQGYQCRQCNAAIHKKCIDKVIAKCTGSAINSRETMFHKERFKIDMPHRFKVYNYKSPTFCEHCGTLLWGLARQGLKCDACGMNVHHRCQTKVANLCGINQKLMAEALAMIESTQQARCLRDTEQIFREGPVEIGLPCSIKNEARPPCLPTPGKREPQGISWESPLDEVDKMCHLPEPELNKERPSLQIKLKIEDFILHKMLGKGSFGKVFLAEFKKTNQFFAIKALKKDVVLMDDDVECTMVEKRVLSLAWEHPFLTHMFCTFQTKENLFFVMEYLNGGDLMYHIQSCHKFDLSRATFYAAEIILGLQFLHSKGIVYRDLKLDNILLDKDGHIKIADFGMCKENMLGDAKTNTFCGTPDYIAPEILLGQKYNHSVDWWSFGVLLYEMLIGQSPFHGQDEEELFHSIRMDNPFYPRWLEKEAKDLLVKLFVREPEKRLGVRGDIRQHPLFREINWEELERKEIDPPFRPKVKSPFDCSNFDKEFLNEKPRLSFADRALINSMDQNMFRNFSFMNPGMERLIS
Sequence of PRKX (P51817 whole entry): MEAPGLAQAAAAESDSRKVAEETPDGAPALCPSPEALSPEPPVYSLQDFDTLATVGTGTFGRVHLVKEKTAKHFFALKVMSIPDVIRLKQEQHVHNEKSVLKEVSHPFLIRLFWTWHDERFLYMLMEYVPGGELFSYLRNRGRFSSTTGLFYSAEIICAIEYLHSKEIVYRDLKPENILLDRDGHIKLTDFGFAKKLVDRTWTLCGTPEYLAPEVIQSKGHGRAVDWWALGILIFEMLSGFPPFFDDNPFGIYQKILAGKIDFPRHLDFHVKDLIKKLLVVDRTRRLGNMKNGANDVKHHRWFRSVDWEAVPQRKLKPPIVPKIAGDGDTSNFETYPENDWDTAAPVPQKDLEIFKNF
Sequence of IRAK4 (Q9NWZ3 whole entry): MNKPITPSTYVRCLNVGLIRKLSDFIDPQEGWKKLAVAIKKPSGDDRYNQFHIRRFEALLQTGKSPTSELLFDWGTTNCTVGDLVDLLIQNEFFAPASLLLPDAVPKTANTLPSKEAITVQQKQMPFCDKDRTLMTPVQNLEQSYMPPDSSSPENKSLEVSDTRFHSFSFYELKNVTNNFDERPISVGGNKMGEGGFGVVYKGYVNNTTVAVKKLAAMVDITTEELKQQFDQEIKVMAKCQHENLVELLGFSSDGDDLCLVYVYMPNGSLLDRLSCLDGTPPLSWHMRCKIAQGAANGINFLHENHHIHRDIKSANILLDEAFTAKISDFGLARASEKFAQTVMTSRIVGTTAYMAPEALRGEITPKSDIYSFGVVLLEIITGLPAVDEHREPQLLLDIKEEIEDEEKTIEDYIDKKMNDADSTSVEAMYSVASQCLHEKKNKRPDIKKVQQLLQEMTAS

COc1ccc2nc3cc(Cl)ccc3c(Nc3cc(CN4CCCC4)c(O)c(CN4CCCC4)c3)c2n1 [Pyronaridine, 4-[(7-Chloro-2-methoxybenzo[b][1,5]naphthyridin-10-yl)amino]-2,6-bis(1-pyrrolidinylmethyl)phenol phosphate (1:4)]
inhibition at 1 µM [1]: 7% | inhibition at 1 µM [2]: 2% | inhibition at 1 µM [3]: 4% | inhibition at 1 µM [4]: 2% | inhibition at 1 µM [5]: 2% | inhibition at 1 µM [6]: 2% | inhibition at 1 µM [7]: 3% | inhibition at 1 µM [8]: -1% | inhibition at 1 µM [9]: 1% | inhibition at 1 µM [10]: 0% | inhibition at 1 µM [11]: -6% | inhibition at 1 µM [12]: 3% | inhibition at 1 µM [13]: 2% | inhibition at 1 µM [14]: -6% | inhibition at 1 µM [15]: -2% | inhibition at 1 µM [16]: 12% | inhibition at 1 µM [17]: -2% | inhibition at 1 µM [18]: 3% | inhibition at 1 µM [19]: -15% | inhibition at 1 µM [20]: 3% | inhibition at 1 µM [21]: -10% | inhibition at 1 µM [22]: 19% | inhibition at 1 µM [23]: 2% | inhibition at 1 µM [24]: 6% | inhibition at 1 µM [25]: 0% | inhibition at 1 µM [26]: 8% | inhibition at 1 µM [27]: 5% | inhibition at 1 µM [28]: -4% | inhibition at 1 µM [29]: 0%
